The values that follow come from patent publication US20230158025A1 (UNIVERSITY OF UTAH RESEARCH FOUNDATION, priority 2020, published 2023).

Where two headings read alike, the source gives them in different places. A value given as a limit tells only on which side of the number the result lay.

One series has as its target recombinant mouse GALK1 (Mus musculus, UniProt Q9R0N0). In words: mGALK1 biochemical activity assay (Kinase-Glo Plus, ATP depletion). Put shortly: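 Recombinant GALK1 (5 nM) with 100 μM galactose; GALK1 turnover read as ATP depletion by Kinase-Glo Plus luminescence. Reaction ran 1 h at room temperature before detection reagent was added.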
In general terms: Kinase-Glo measures the ATP left after a reaction by luminescence.

Series [1] is described as follows: aqueous kinetic solubility. Particulars: aqueous kinetic solubility.
A further series deals with recombinant human GALK1 (Homo sapiens, UniProt P51570). In words: hGALK1 biochemical activity assay (Kinase-Glo Plus, ATP depletion). Summed up:
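Recombinant human or mouse GALK1 (5 nM, with 100 μM galactose, in the added enzyme solution) was run with ATP (35 μM in the substrate solution) in HEPES pH 8.0 buffer. Compounds were tested at 11 1/3-step concentrations from 57.4 μM to 0.97 nM. After 1 h at room temperature, remaining ATP was read by Kinase-Glo Plus luminescence.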

A further series is described as follows: PAMPA permeability. Particulars: PAMPA. On the technique in general: The PAMPA barrier holds no transporters, so it reflects passive diffusion.
The nature of series [2]: rat microsomal stability (RLM). Particulars: microsomal stability half-life.
[3] abbreviates: Tables 2-15, 35 μM ATP, 100 μM galactose, 1 h, bracketed figure after some values is undefined and not reported, read-out: mGALK IC50.
The mark [4] stands for this setting: recombinant mouse GALK1, Kinase-Glo Plus ATP depletion, read-out: mGALK.
Where [5] appears, read: Tables 2-15, 35 μM ATP, 100 μM galactose, 1 h, bracketed figure after some values (e.g. −1.2) is undefined and not reported, read-out: hGALK IC50.
Where [6] appears, read: recombinant human GALK1, Kinase-Glo Plus ATP depletion, read-out: hGALK.

recombinant mouse GALK1, sequence (Q9R0N0 whole entry): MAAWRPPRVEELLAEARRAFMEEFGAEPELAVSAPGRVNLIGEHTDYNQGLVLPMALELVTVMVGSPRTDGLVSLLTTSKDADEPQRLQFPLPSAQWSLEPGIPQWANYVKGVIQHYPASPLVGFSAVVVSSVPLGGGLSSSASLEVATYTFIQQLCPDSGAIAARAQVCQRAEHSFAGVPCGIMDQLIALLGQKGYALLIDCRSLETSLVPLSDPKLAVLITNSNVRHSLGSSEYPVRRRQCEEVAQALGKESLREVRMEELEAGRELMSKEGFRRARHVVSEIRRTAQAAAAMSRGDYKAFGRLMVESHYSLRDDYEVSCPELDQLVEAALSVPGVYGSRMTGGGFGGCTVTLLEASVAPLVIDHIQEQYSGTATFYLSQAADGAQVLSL
recombinant human GALK1, sequence (P51570 whole entry): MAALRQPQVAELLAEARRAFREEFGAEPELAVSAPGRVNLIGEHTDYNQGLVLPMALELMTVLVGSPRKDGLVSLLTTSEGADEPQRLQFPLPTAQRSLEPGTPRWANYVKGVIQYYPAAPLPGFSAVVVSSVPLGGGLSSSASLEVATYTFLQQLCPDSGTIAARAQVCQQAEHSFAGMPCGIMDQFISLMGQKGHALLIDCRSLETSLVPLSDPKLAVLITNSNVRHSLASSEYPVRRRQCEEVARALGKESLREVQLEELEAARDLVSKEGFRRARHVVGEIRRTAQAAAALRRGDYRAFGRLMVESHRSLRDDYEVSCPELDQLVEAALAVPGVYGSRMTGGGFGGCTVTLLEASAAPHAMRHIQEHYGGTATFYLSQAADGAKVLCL

As to `CNC(=O)c1ccnc(NC(=O)C2=C(C)NC(Nc3nc4ccccc4o3)=NC2c2ccccc2Cl)c1` (stereo not shown) [Compound 213, 2-(benzo[d]oxazol-2-ylamino)-4-(2-chlorophenyl)-6-methyl-N-(4-(methylcarbamoyl)pyridin-2-yl)-1,4-dihydropyrimidine-5-carboxamide], the IC50 at recombinant mouse GALK1 (setting [3]) came to 10.9 µM; at recombinant mouse GALK1 (setting [4]) it was 10.9 µM; on recombinant human GALK1 (setting [5]), 3.06 µM; at recombinant human GALK1 (setting [6]), 3.06 µM. Moreover, the “Sol.” value in series [1] was <1 µg/mL. The “Perm. (1 × 10^−6 cm/sec)” value in “PAMPA permeability” is reported as 421.9 1 × 10^−6 cm/sec. In addition, the “Metab. Stabil. (m)” value in series [2] was >30 m.

Take `CC1=C(C(=O)Nc2ccccn2)C(c2ccccc2Cl)N=C(Nc2nc3ccccc3o2)N1` (stereo not shown) [Compound 214, 2-(benzo[d]oxazol-2-ylamino)-4-(2-chlorophenyl)-6-methyl-N-(pyridin-2-yl)-1,4-dihydropyrimidine-5-carboxamide]: the IC50 at recombinant mouse GALK1 (setting [3]) came out at 10.9 µM; on recombinant mouse GALK1 (setting [4]) it was 10.9 µM; on recombinant human GALK1 (setting [6]), 4.32 µM. In series [1], the “Sol.” value was <1 µg/mL. In addition, the “Perm. (1 × 10^−6 cm/sec)” value in “PAMPA permeability” was 173.5 1 × 10^−6 cm/sec. In series [2], the “Metab. Stabil. (m)” value is given as >30 m.

As for `COc1ccccc1CNC(=O)C1=C(C)NC(Nc2nc3ccccc3o2)=NC1c1ccccc1Cl` (stereo not shown) [Compound 215, 2-(benzo[d]oxazol-2-ylamino)-4-(2-chlorophenyl)-N-(2-methoxybenzyl)-6-methyl-1,4-dihydropyrimidine-5-carboxamide], the IC50 at recombinant mouse GALK1 (setting [3]) was 12.2 µM; on recombinant mouse GALK1 (setting [4]) it was 12.2 µM; at recombinant human GALK1 (setting [5]), 7.69 µM; at recombinant human GALK1 (setting [6]) it was 7.69 µM. The “Sol.” value in series [1] was <1 µg/mL. For the same compound, the “Perm. (1 × 10^−6 cm/sec)” value in “PAMPA permeability” is reported as 99.3 1 × 10^−6 cm/sec. The “Metab. Stabil. (m)” value in series [2] is recorded as 1.4 m.

Consider `CC1=C(C(=O)NCc2ccc(Cl)cc2)C(c2ccccc2Cl)N=C(Nc2nc3ccccc3o2)N1` (stereo not shown) [Compound 218, 2-(benzo[d]oxazol-2-ylamino)-4-(2-chlorophenyl)-N-(4-chlorobenzyl)-6-methyl-1,4-dihydropyrimidine-5-carboxamide], for which the “mGALK IC50” value at recombinant mouse GALK1 (Tables 2-15, 35 μM ATP, 100 μM galactose, 1 h, bracketed figure after some values is undefined and not reported) is “inactive”. Further, the “mGALK (μM)” value at recombinant mouse GALK1 (recombinant mouse GALK1, Kinase-Glo Plus ATP depletion) is recorded as “in- active”. Also, in series [1], the “Sol.” value was <1 µg/mL. In addition, at recombinant human GALK1 (Tables 2-15, 35 μM ATP, 100 μM galactose, 1 h, bracketed figure after some values (e.g. −1.2) is undefined and not reported), the “hGALK IC50” value is “inactive”. Besides, the “hGALK (μM)” value at recombinant human GALK1 (recombinant human GALK1, Kinase-Glo Plus ATP depletion) is recorded as “in- active”. Moreover, in the series “PAMPA permeability”, the “Perm. (1 × 10^−6 cm/sec)” value was 25.8 1 × 10^−6 cm/sec. In series [2], the “Metab. Stabil. (m)” value was 11.91 m.

Turning to `CC1=C(C(=O)NCc2ccccn2)C(c2ccccc2Cl)N=C(Nc2nc3ccccc3o2)N1` (stereo not shown) [Compound 220, 2-(benzo[d]oxazol-2-ylamino)-4-(2-chlorophenyl)-6-methyl-N-(pyridin-2-ylmethyl)-1,4-dihydropyrimidine-5-carboxamide], the IC50 came out at 19.3 µM at recombinant mouse GALK1 (setting [4]), 8.63 µM at recombinant human GALK1 (setting [5]) and 8.63 µM on recombinant human GALK1 (setting [6]). In addition, the “Sol.” value in series [1] came to 1.8 µg/mL. The “Perm. (1 × 10^−6 cm/sec)” value in the series “PAMPA permeability” was 1424.0 1 × 10^−6 cm/sec. For the same compound, the “Metab. Stabil. (m)” value in series [2] was determined as 6.557 m.

Regarding `CC1=C(C(=O)NCc2cccnc2)C(c2ccccc2Cl)N=C(Nc2nc3ccccc3o2)N1` (stereo not shown) [Compound 221, 2-(benzo[d]oxazol-2-ylamino)-4-(2-chlorophenyl)-6-methyl-N-(pyridin-3-ylmethyl)-1,4-dihydropyrimidine-5-carboxamide], the IC50 on recombinant mouse GALK1 (setting [4]) was found to be 19.3 µM; at recombinant human GALK1 (setting [5]) it was 6.85 µM; at recombinant human GALK1 (setting [6]) it was 6.85 µM. Also, the “Sol.” value in series [1] is <1 µg/mL. Also, in the series “PAMPA permeability”, the “Perm. (1 × 10^−6 cm/sec)” value was 1248.8 1 × 10^−6 cm/sec. For the same compound, in series [2], the “Metab. Stabil. (m)” value is 1.582 m.

For `COC(=O)c1ccccc1CNC(=O)C1=C(C)NC(Nc2nc3ccccc3o2)=NC1c1ccccc1Cl` (stereo not shown) [Compound 222, methyl 2-((2-(benzo[d]oxazol-2-ylamino)-4-(2-chlorophenyl)-6-methyl-1,4-dihydropyrimidine-5-carboxamido)methyl)benzoate], the IC50 amounted to 4.32 µM on recombinant mouse GALK1 (setting [3]), 4.32 µM at recombinant mouse GALK1 (setting [4]), 6.85 µM at recombinant human GALK1 (setting [5]) and 6.85 µM on recombinant human GALK1 (setting [6]). Besides, the “Sol.” value in series [1] is <1 µg/mL. For the same compound, the “Perm. (1 × 10^−6 cm/sec)” value in the series “PAMPA permeability” was 462.5 1 × 10^−6 cm/sec. Further, the “Metab. Stabil. (m)” value in series [2] was found to be 1.742 m.
